In paper PMC7667569, “Chemical Composition and Biological Activities of Endophytic Fungus Talaromyces Wortmannii LGT-4, Cultured in CYM Medium” (Iranian Journal of Pharmaceutical Research : IJPR, 2020):
In brackets after ≈: the same amount, converted by molar mass.

Test system: T1, monoamine oxidase (MAO)
T1 construct: gene MAOA
Experiment: MAO inhibition assay (procedure by reference)
Details: isoenzyme and enzyme source not told

SMILES	IC50 [µg/mL]
O=C1OCc2c(O)cccc21 [compound 1, 4-hydroxyphthalide]	35 (≈ 233 µM)
C[C@@H]1NC(=O)[C@@H]2CCCN2C1=O [compound 5, Cis-cyclo(L-Ala-L-Pro)]	28 (≈ 166 µM)
